# Values quoted from earlier work in US8586580B2, “2,7-substituted thieno[3,2-d] pyrimidine compounds as protein kinase inhibitors” (Korea Institute of Science and Technology, priority 2009, dated 2013).
# System: PC-3, BT-474, LoVo, NCI-H460, U-87 MG and BxPC-3 human tumor xenografts
# Conditions: in vivo
structure (smiles),measurement,value
CN(c1ncccc1CNc1nc(Nc2ccc3c(c2)CC(=O)N3)ncc1C(F)(F)F)S(C)(=O)=O [PF-562271],toxicity,No special toxicity has been observed
